Experimental data reported in patent US20070112068A1, “Nitrile compound and its use in pest control” (priority 2003, published 2007).

What was measured:
Type in all cases: in vivo
Blattella germanica [1] = test: Experimental Example 15: treated filter paper in paper box, Blattella germanica; conditions: 0.1 ml of 2.5% (w/v) acetone solution on filter paper in paper box; after 7 days
Description: (§1) 2.5% (w/v) solutions of the present compounds (23), (24) and (31) in acetone were prepared. 0.1 ml of the solution was added dropwise onto a filter paper with 2 cm×2 cm and then air-dried. This filter paper was attached to the center of the inside bottom of a paper box having 10 cm (width)×2 cm (height)×7 cm (depth) with a two-sided tape. One hole of 5 mm in width and 2 cm in height was made through one side of this box. This box was placed in a plastic vat with 25 cm×20 cm×8 cm in height and therein 10 females and 10 males of Blattella germanica were released. The inside wall of the plastic vat used in this experiment was coated with talc for preventing the escape of cockroaches. The plastic vat contained feed and water and left at 25° C. After 7 days, Blattella germanica was observed and the death rate of the pest was calculated. This experiment was repeated two times.

Periplaneta fuliginosa = test: Experimental Example 16: treated filter paper in paper box, Periplaneta fuliginosa; conditions: 0.1 ml of 5% (w/v) acetone solution on filter paper in paper box; after 7 days
Description: as §1, with “5% (w/v)” for “2.5% (w/v)”, “of 2” for “of 5”, “therein 3” for “therein 10”, “and 3” for “and 10”, “of Periplaneta fuliginosa” for “of Blattella germanica”, “days, Periplaneta fuliginosa” for “days, Blattella germanica”

Blattella germanica [2] = test: Experimental Example 14: topical application, Blattella germanica; conditions: 1 μl of 1% (w/v) acetone solution onto sternum of thorax of female imagoes; after 7 days
Description: 1% (w/v) solutions of the present compounds (4), (20), (22), (23), (24), (29), (30), (31), (35), (36), (37), (38), (46), (53), (54), (56), (57), (59), (61), (66), (67), (68), (69), (70), (71), (79), (81), (83), (84), (89), and (90) in acetone were prepared. Onto the sternum of the thorax of female imagoes of Blattella germanica, 1 μl of the acetone solution was added dropwise. The imagoes were transferred to a plastic cup having a diameter of about 9 cm and a height of about 4.5 cm and left together with feed and water at 25° C. After 7 days, the number of surviving Blattella germanica was examined and the death rate of the pest was calculated. 10 imagoes of Blattella germanica were put in a cup and three replicate experiments were performed.

Blattalla germanica = test: Experimental Example 3: treated filter paper with sucrose bait, German cockroach; conditions: 500 ppm, 0.7 ml on filter paper; two male imagoes; after 6 days
Description: A filter paper having a diameter of 5.5 cm was spread on the bottom of a polyethylene cup having a diameter of 5.5 cm and 0.7 ml of the experimental pesticidal solution was added dropwise onto the filter paper. As a bait 30 mg of sucrose was uniformly placed on the filter paper. Into the polyethylene cup, two male Blattalla germanica imagoes were released and the cup was sealed with a lid. After 6 days, the number of surviving Blattalla germanica was examined and the death rate of the pest was calculated.

Measured: death rate of the pest

N#CC(C#N)(CCC(F)(F)F)CC(F)(F)C(F)(F)C(F)(F)F [(24)]
100%: all assays above
